Values after ≈ are worked out from the molar mass of the structure shown. Where two headings read alike, the source gives them in different places.
Columns and labels:
Test in all cases: In vitro MIC, broth dilution
Format in all cases: cell-based
E. coli GC 4559 = settings: Escherichia coli, GC4559
E. coli GC 4560 = settings: Escherichia coli, GC4560
E. coli GC 3226 = settings: Escherichia coli, GC3226
S. marcescens GC 4077 = settings: Serratia marcescens, GC4077
C. albicans GC 3066 = settings: Candida albicans, GC3066
M. morganii GC 4531 = settings: Morganella morganii, GC4531
K. pneumoniae GC 4534 = settings: Klebsiella pneumoniae, GC4534
E. cloacae GC 3783 = settings: Enterobacter cloacae, GC3783
P. aeruginosa GC 4532 = settings: Pseudomonas aeruginosa, GC4532
CNS GC 4537 = test system: CNS GC 4537
Description: (§1) The minimum inhibitory concentration (MIC), the lowest concentration of the antibiotic which inhibits growth of the test organism, is determined by the broth dilution method using Muller-Hinton II […] (Baltimore Biological Laboratories) following the recommendations of National Committee for Clinical Laboratory Standards. [Reference for the Methods for dilution antimicrobial susceptibility tests for bacteria that grow aerobically: National Committee for Clinical Laboratory Standards, 1997. Approved standard M7-A National Committee for Clinical Laboratory Standards, Wayne, Pa.] An inoculum level of 5×10^5 CFU/ml, and a range of antibiotic concentrations (64-0.06 μg/ml) is used. The MIC is determined after the microtiter plates are incubated for 18 hours at 35° C. in an ambient air incubator. The test organisms comprise a spectrum of gram-positive bacteria including Staphylococcus sp., Streptococcus sp. and Enterococcus sp. These organisms include recent clinical isolates that are resistant to methicillin, penicillin and vancomycin.

CNS GC 4538 = test system: CNS GC 4538
Description: as §1

CNS GC 4547 = test system: CNS GC 4547
Description: as §1

E. faecalis GC 2242 = settings: Enterococcus faecalis, GC2242
Description: as §1

E. faecalis GC 4555 = settings: Enterococcus faecalis, GC4555
Description: as §1

E. faecalis GC 842 = settings: Enterococcus faecalis, GC842
Description: as §1

S. aureus GC 1131 = settings: Staphylococcus aureus, GC1131
Description: as §1

S. aureus GC 2216 = settings: Staphylococcus aureus, GC2216
Description: as §1

S. aureus GC 4536 = settings: Staphylococcus aureus, GC4536
Description: as §1

E. coli GC 2203 = settings: Escherichia coli, GC2203
P. aeruginosa GC 2214 = settings: Pseudomonas aeruginosa, GC2214
[1] = S. marcescens GC 4077, read-out: MIC
[2] = C. albicans GC 3066, read-out: MIC
[3] = M. morganii GC 4531, read-out: MIC
[4] = K. pneumoniae GC 4534, read-out: MIC
[5] = E. cloacae GC 3783, read-out: MIC
[6] = P. aeruginosa GC 4532, read-out: MIC
[7] = E. faecalis GC 2242, read-out: MIC
[8] = E. faecalis GC 4555, read-out: MIC
[9] = E. faecalis GC 842, read-out: MIC
[10] = S. aureus GC 1131, read-out: MIC
[11] = S. aureus GC 2216, read-out: MIC
[12] = S. aureus GC 4536, read-out: MIC
[13] = P. aeruginosa GC 2214, read-out: MIC

SMILES	MIC (E. coli GC 4559; E. coli GC 4559, read-out: MIC) [µg/mL]	MIC (E. coli GC 4560; E. coli GC 4560, read-out: MIC) [µg/mL]	MIC (E. coli GC 3226; E. coli GC 3226, read-out: MIC) [µg/mL]	MIC (S. marcescens GC 4077; [1]) [µg/mL]	MIC (C. albicans GC 3066; [2]) [µg/mL]	MIC (M. morganii GC 4531; [3]) [µg/mL]	MIC (K. pneumoniae GC 4534; [4]) [µg/mL]	MIC (E. cloacae GC 3783; [5]) [µg/mL]	MIC (P. aeruginosa GC 4532; [6]) [µg/mL]	MIC (CNS GC 4537; CNS GC 4537, read-out: MIC) [µg/mL]	MIC (CNS GC 4538; CNS GC 4538, read-out: MIC) [µg/mL]	MIC (CNS GC 4547; CNS GC 4547, read-out: MIC) [µg/mL]	MIC (E. faecalis GC 2242; [7]) [µg/mL]	MIC (E. faecalis GC 4555; [8]) [µg/mL]	MIC (E. faecalis GC 842; [9]) [µg/mL]	MIC (S. aureus GC 1131; [10]) [µg/mL]	MIC (S. aureus GC 2216; [11]) [µg/mL]	MIC (S. aureus GC 4536; [12]) [µg/mL]	MIC (E. coli GC 2203; E. coli GC 2203, read-out: MIC) [µg/mL]	MIC (P. aeruginosa GC 2214; [13]) [µg/mL]	further results
COc1ccc(Cn2c(=O)ccn([C@@H]3OC([C@H](O)[C@H](NCCCNC(=O)[C@@H](N)[C@@H](O)C(C)C)C(=O)OC(C)(C)C)[C@@H](O[Si](C)(C)C(C)(C)C)[C@H]3O[Si](C)(C)C(C)(C)C)c2=O)cc1 (stereo partly drawn) [Example 2, tert-Butyl (2S,3R)-2-[(3-{[(2S,3S)-2-amino-3-hydroxy-4-methylpentanoyl]amino}propyl)amino]-3-[(3R,4R,5R)-3,4-bis{[tert-butyl(dimethyl)silyl]oxy}-5-(3-(4-methoxybenzyl)-2,4-dioxo-3,4-dihydro-1(2H)-pyrimidinyl)tetrahydro-2-furanyl]-3-hydroxypropanoate]	> 128	> 128	> 128	> 128	> 128	> 128	> 128	> 128	> 128	4 (≈ 4.4 µM)	4 (≈ 4.4 µM)	16 (≈ 17.6 µM)	4 (≈ 4.4 µM)	4 (≈ 4.4 µM)	8 (≈ 8.81 µM)	4 (≈ 4.4 µM)	4 (≈ 4.4 µM)	16 (≈ 17.6 µM)	> 128	> 128	–
CCCCCCCCCCCCCC(=O)OC(C)[C@H](NC(=O)OCc1ccccc1)C(=O)NCCCNC(C(=O)OCC)C(O)C1O[C@@H](n2ccc(=O)[nH]c2=O)[C@H](OC(C)=O)[C@@H]1OC(C)=O (stereo in doubt) [Example 58, Ethyl (5S)-12-[(R)-[(2R,3R,4R,5R)-3,4-bis(acetyloxy)-5-(2,4-dioxo-3,4-dihydropyrimidin-1(2 h)-yl)tetrahydrofuran-2-yl](hydroxy)methyl]-3,6-dioxo-1-phenyl-5-[(1S)-1-(tetradecanoyloxy)ethyl]-2-oxa-4,7,11-triazatridecan-13-oate]	> 128	> 128	> 128	> 128	> 128	> 128	> 128	> 128	> 128	> 128	> 128	> 128	> 128	> 128	> 128	> 128	> 128	> 128	> 128	> 128	–
COc1ccc(Cn2c(=O)ccn([C@@H]3OC([C@H](O)[C@H](NCCCNC(=O)CCCCCCCCCCN)C(=O)OC(C)(C)C)[C@@H](O[Si](C)(C)C(C)(C)C)[C@H]3O[Si](C)(C)C(C)(C)C)c2=O)cc1 (stereo partly drawn) [Example 25]	> 128	128 (≈ 133 µM)	> 128	128 (≈ 133 µM)	128 (≈ 133 µM)	128 (≈ 133 µM)	> 128	> 128	128 (≈ 133 µM)	64 (≈ 66.5 µM)	64 (≈ 66.5 µM)	128 (≈ 133 µM)	64 (≈ 66.5 µM)	128 (≈ 133 µM)	128 (≈ 133 µM)	128 (≈ 133 µM)	128 (≈ 133 µM)	128 (≈ 133 µM)	> 128	128 (≈ 133 µM)	–
COc1ccc(Cn2c(=O)ccn([C@@H]3OC([C@H](O)[C@H](NCCCNC(=O)C(NC(=O)[C@H](CCCNC(=N)N[N+](=O)[O-])NC(=O)N[C@H](C(=O)OCc4ccccc4)C(C)C)[C@@H](C)O)C(=O)OC(C)(C)C)[C@@H](O[Si](C)(C)C(C)(C)C)[C@H]3O[Si](C)(C)C(C)(C)C)c2=O)cc1 (stereo partly drawn) [Example 30, 1-Benzyl 17-(tert-butyl)(2S,6S,9S,16S)-16-[(R)-[(3R,4R,5R)-3,4-bis{[tert-butyl(dimethyl)silyl]oxy}-5-(3-(4-methoxybenzyl)-2,4-dioxo-3,4-dihydro-1(2H)-pyrimidinyl)tetrahydro-2-furanyl](hydroxy)methyl]-6-(3-{[(2,2-dioxido-2lambda˜1˜-diazanyl)(imino)methyl]amino}propyl)-9-[(1S)-1-hydroxyethyl]-2-isopropyl-4,7,10-trioxo-3,5,8,11,15-pentaazaheptadecane-1,17-dioate]	–	–	–	–	–	–	–	–	–	–	–	–	–	–	–	–	–	–	–	–	MIC (E. coli GC 4559): > 128 µg/mL; MIC (E. coli GC 4560): 64 µg/mL (≈ 48.7 µM); MIC (E. coli GC 3226): > 128 µg/mL; MIC (S. marcescens GC 4077): 128 µg/mL (≈ 97.4 µM); MIC (C. albicans GC 3066): 64 µg/mL (≈ 48.7 µM); MIC (M. morganii GC 4531): 128 µg/mL (≈ 97.4 µM); MIC (K. pneumoniae GC 4534): 128 µg/mL (≈ 97.4 µM); MIC (E. cloacae GC 3783): 128 µg/mL (≈ 97.4 µM); MIC (P. aeruginosa GC 4532): 64 µg/mL (≈ 48.7 µM); MIC (CNS GC 4537): 128 µg/mL (≈ 97.4 µM); MIC (CNS GC 4538): 128 µg/mL (≈ 97.4 µM); MIC (CNS GC 4547): 128 µg/mL (≈ 97.4 µM); MIC (E. faecalis GC 2242): 64 µg/mL (≈ 48.7 µM); MIC (E. faecalis GC 4555): 64 µg/mL (≈ 48.7 µM); MIC (E. faecalis GC 842): 128 µg/mL (≈ 97.4 µM); MIC (S. aureus GC 1131): 128 µg/mL (≈ 97.4 µM); MIC (S. aureus GC 2216): 128 µg/mL (≈ 97.4 µM); MIC (S. aureus GC 4536): 128 µg/mL (≈ 97.4 µM); MIC (E. coli GC 2203): > 128 µg/mL; MIC (P. aeruginosa GC 2214): 64 µg/mL (≈ 48.7 µM)
COc1ccc(Cn2c(=O)ccn([C@@H]3OC([C@H](O)[C@H](NCCCNC(=O)CCCCCCCCCCNC(=O)OCC4c5ccccc5-c5ccccc54)C(=O)OC(C)(C)C)[C@@H](O[Si](C)(C)C(C)(C)C)[C@H]3O[Si](C)(C)C(C)(C)C)c2=O)cc1 (stereo partly drawn) [Example 24, tert-Butyl (21S)-21-[(R)-[(3R,4R,5R)-3,4-bis{[tert-butyl(dimethyl)silyl]oxy}-5-(3-(4-methoxybenzyl)-2,4-dioxo-3,4-dihydro-1(2H)-pyrimidinyl)tetrahydro-2-furanyl](hydroxy)methyl]-1-(9H-fluoren-9-yl)-3,15-dioxo-2-oxa-4,16,20-triazadocosan-22-oate]	–	–	–	–	–	–	–	–	–	–	–	–	–	–	–	–	–	–	–	–	MIC (E. coli GC 4559): > 128 µg/mL; MIC (E. coli GC 4560): 128 µg/mL (≈ 108 µM); MIC (E. coli GC 3226): > 128 µg/mL; MIC (S. marcescens GC 4077): 128 µg/mL (≈ 108 µM); MIC (C. albicans GC 3066): 128 µg/mL (≈ 108 µM); MIC (M. morganii GC 4531): 128 µg/mL (≈ 108 µM); MIC (K. pneumoniae GC 4534): > 128 µg/mL; MIC (E. cloacae GC 3783): > 128 µg/mL; MIC (P. aeruginosa GC 4532): 128 µg/mL (≈ 108 µM); MIC (CNS GC 4537): > 128 µg/mL; MIC (CNS GC 4538): > 128 µg/mL; MIC (CNS GC 4547): > 128 µg/mL; MIC (E. faecalis GC 2242): 128 µg/mL (≈ 108 µM); MIC (E. faecalis GC 4555): > 128 µg/mL; MIC (E. faecalis GC 842): > 128 µg/mL; MIC (S. aureus GC 1131): > 128 µg/mL; MIC (S. aureus GC 2216): > 128 µg/mL; MIC (S. aureus GC 4536): > 128 µg/mL; MIC (E. coli GC 2203): > 128 µg/mL; MIC (P. aeruginosa GC 2214): 128 µg/mL (≈ 108 µM)
CCOC(=O)C(NCCCNC(=O)[C@@H](N)CC(C)C)[C@@H](OC(C)=O)[C@H]1O[C@@H](n2ccc(=O)[nH]c2=O)[C@H](OC(C)=O)[C@@H]1OC(C)=O (stereo partly drawn) [Example 40, Ethyl (3R)-3-(acetyloxy)-2-[(3-{[(2S)-2-amino-4-methylpentanoyl]amino}propyl)amino]-3-[(2R,3R,4R,5R)-3,4-bis(acetyloxy)-5-(2,4-dioxo-3,4-dihydro-1(2H)-pyrimidinyl)tetrahydro-2-furanyl]propanoate]	> 128	> 128	> 128	> 128	> 128	> 128	> 128	> 128	128 (≈ 199 µM)	> 128	> 128	> 128	128 (≈ 199 µM)	> 128	> 128	> 128	> 128	> 128	> 128	128 (≈ 199 µM)	–

— patent US6858591B2, “Antibiotic AA 896 analogs” (Wyeth Holdings Corporation, priority 2001, dated 2005)
